Measurements reported in the NIST ThermoML archive (doi:10.1021/je500804j).

Test: mn = molality of the nth substance listed, in mol/kg
Conditions: 101 kPa, Liquid, Alternating current cell with electrodes

CCCCCCCC[N+](C)(C)CCCCCC[N+](C)(C)CCCCCCCC.[Br-].[Br-] + O
Conditions	electrical conductivity [S/m]
303.15 K, m1 = 0.1147	1.235
303.15 K, m1 = 0.1161	1.242
308.15 K, m1 = 0.00368	0.09215
308.15 K, m1 = 0.00726	0.1725
308.15 K, m1 = 0.01076	0.2453
308.15 K, m1 = 0.01417	0.3115
308.15 K, m1 = 0.0175	0.3725
308.15 K, m1 = 0.02076	0.4289
308.15 K, m1 = 0.02394	0.4827
308.15 K, m1 = 0.02704	0.5324
308.15 K, m1 = 0.03008	0.5804
308.15 K, m1 = 0.03304	0.6259
308.15 K, m1 = 0.03595	0.6694
308.15 K, m1 = 0.03878	0.7099
308.15 K, m1 = 0.04156	0.7496
308.15 K, m1 = 0.04428	0.7852
308.15 K, m1 = 0.04693	0.8231
308.15 K, m1 = 0.05209	0.8882
308.15 K, m1 = 0.05458	0.9163
308.15 K, m1 = 0.05703	0.9472
308.15 K, m1 = 0.05942	0.9728
308.15 K, m1 = 0.06177	1.001
308.15 K, m1 = 0.06407	1.027
308.15 K, m1 = 0.06633	1.05
308.15 K, m1 = 0.06854	1.072
308.15 K, m1 = 0.07072	1.092
308.15 K, m1 = 0.07284	1.111
308.15 K, m1 = 0.07493	1.128
308.15 K, m1 = 0.07698	1.149
308.15 K, m1 = 0.079	1.164
308.15 K, m1 = 0.08097	1.182
308.15 K, m1 = 0.08291	1.195
308.15 K, m1 = 0.08482	1.211
308.15 K, m1 = 0.08669	1.225
308.15 K, m1 = 0.08852	1.238
308.15 K, m1 = 0.09033	1.251
308.15 K, m1 = 0.0921	1.264
308.15 K, m1 = 0.09385	1.276
308.15 K, m1 = 0.09556	1.286
308.15 K, m1 = 0.09725	1.298
308.15 K, m1 = 0.0989	1.308
308.15 K, m1 = 0.1005	1.319
308.15 K, m1 = 0.1021	1.326
308.15 K, m1 = 0.1037	1.337
308.15 K, m1 = 0.1053	1.346
308.15 K, m1 = 0.1068	1.354
308.15 K, m1 = 0.1083	1.363
308.15 K, m1 = 0.1098	1.37
308.15 K, m1 = 0.1112	1.38
308.15 K, m1 = 0.1127	1.385
308.15 K, m1 = 0.1141	1.392
313.15 K, m1 = 0.00383	0.1036
313.15 K, m1 = 0.00755	0.1854
313.15 K, m1 = 0.01119	0.2548
313.15 K, m1 = 0.01473	0.3279
313.15 K, m1 = 0.01819	0.3993
313.15 K, m1 = 0.02156	0.4651
313.15 K, m1 = 0.02485	0.5281
313.15 K, m1 = 0.02806	0.5866
313.15 K, m1 = 0.0312	0.6397
313.15 K, m1 = 0.03426	0.6934
313.15 K, m1 = 0.03725	0.7428
313.15 K, m1 = 0.04018	0.7886
313.15 K, m1 = 0.04304	0.8328
313.15 K, m1 = 0.04583	0.8749
313.15 K, m1 = 0.04857	0.9139
313.15 K, m1 = 0.05386	0.9883
313.15 K, m1 = 0.05642	1.024
313.15 K, m1 = 0.05893	1.055
313.15 K, m1 = 0.06138	1.086
313.15 K, m1 = 0.06379	1.114
313.15 K, m1 = 0.06615	1.139
313.15 K, m1 = 0.06845	1.165
313.15 K, m1 = 0.07072	1.19
313.15 K, m1 = 0.07293	1.212
313.15 K, m1 = 0.07511	1.236
313.15 K, m1 = 0.07724	1.257
313.15 K, m1 = 0.07933	1.276
313.15 K, m1 = 0.08138	1.296
313.15 K, m1 = 0.08339	1.314
313.15 K, m1 = 0.08537	1.332
313.15 K, m1 = 0.0873	1.348
313.15 K, m1 = 0.08921	1.364
313.15 K, m1 = 0.09107	1.378
313.15 K, m1 = 0.09291	1.392
313.15 K, m1 = 0.09471	1.406
313.15 K, m1 = 0.09648	1.418
313.15 K, m1 = 0.09822	1.432
313.15 K, m1 = 0.09993	1.444
313.15 K, m1 = 0.1016	1.457
313.15 K, m1 = 0.1032	1.467
313.15 K, m1 = 0.1049	1.476
313.15 K, m1 = 0.1065	1.487
313.15 K, m1 = 0.108	1.493
313.15 K, m1 = 0.1096	1.505
313.15 K, m1 = 0.1111	1.516
313.15 K, m1 = 0.1126	1.527
313.15 K, m1 = 0.1141	1.537
313.15 K, m1 = 0.1155	1.545
313.15 K, m1 = 0.1169	1.553
318.15 K, m1 = 0.00396	0.09519
318.15 K, m1 = 0.00782	0.2003
318.15 K, m1 = 0.01158	0.2945
318.15 K, m1 = 0.01525	0.381
318.15 K, m1 = 0.01883	0.4611
318.15 K, m1 = 0.02233	0.5339
318.15 K, m1 = 0.02574	0.6047
318.15 K, m1 = 0.02907	0.6691
318.15 K, m1 = 0.03233	0.7314
318.15 K, m1 = 0.03551	0.7874
318.15 K, m1 = 0.03862	0.8418
318.15 K, m1 = 0.04166	0.8941
318.15 K, m1 = 0.04463	0.9453
318.15 K, m1 = 0.04754	0.9898
318.15 K, m1 = 0.05038	1.036
318.15 K, m1 = 0.05589	1.12
318.15 K, m1 = 0.05856	1.154
318.15 K, m1 = 0.06117	1.192
318.15 K, m1 = 0.06373	1.221
318.15 K, m1 = 0.06624	1.254
318.15 K, m1 = 0.06869	1.281
318.15 K, m1 = 0.0711	1.313
318.15 K, m1 = 0.07346	1.338
318.15 K, m1 = 0.07577	1.367
318.15 K, m1 = 0.07804	1.392
318.15 K, m1 = 0.08027	1.412
318.15 K, m1 = 0.08245	1.437
318.15 K, m1 = 0.08459	1.458
318.15 K, m1 = 0.0867	1.474
318.15 K, m1 = 0.08876	1.498
318.15 K, m1 = 0.09078	1.51
318.15 K, m1 = 0.09277	1.532
318.15 K, m1 = 0.09473	1.547
318.15 K, m1 = 0.09665	1.567
318.15 K, m1 = 0.09853	1.582
318.15 K, m1 = 0.1004	1.591
318.15 K, m1 = 0.1022	1.609
318.15 K, m1 = 0.104	1.626
318.15 K, m1 = 0.1057	1.636
318.15 K, m1 = 0.1075	1.647
318.15 K, m1 = 0.1092	1.659
318.15 K, m1 = 0.1109	1.674
318.15 K, m1 = 0.1125	1.687
318.15 K, m1 = 0.1141	1.699
318.15 K, m1 = 0.1157	1.713
318.15 K, m1 = 0.1173	1.724
318.15 K, m1 = 0.1188	1.732
318.15 K, m1 = 0.1203	1.749
318.15 K, m1 = 0.1218	1.761
323.15 K, m1 = 0.00396	0.123
323.15 K, m1 = 0.00782	0.2241
323.15 K, m1 = 0.01158	0.3183
323.15 K, m1 = 0.01526	0.4132
323.15 K, m1 = 0.01884	0.5013
323.15 K, m1 = 0.02233	0.5818
323.15 K, m1 = 0.02575	0.6582
323.15 K, m1 = 0.02908	0.7289
323.15 K, m1 = 0.03234	0.7956
323.15 K, m1 = 0.03552	0.8617
323.15 K, m1 = 0.03863	0.9197
323.15 K, m1 = 0.04167	0.9784
323.15 K, m1 = 0.04464	1.033
323.15 K, m1 = 0.04755	1.084
323.15 K, m1 = 0.0504	1.133
323.15 K, m1 = 0.05591	1.222
323.15 K, m1 = 0.05858	1.262
323.15 K, m1 = 0.06119	1.299
323.15 K, m1 = 0.06375	1.336
323.15 K, m1 = 0.06625	1.367
323.15 K, m1 = 0.06871	1.396
323.15 K, m1 = 0.07112	1.427
323.15 K, m1 = 0.07348	1.453
323.15 K, m1 = 0.07579	1.485
323.15 K, m1 = 0.07806	1.514
323.15 K, m1 = 0.08029	1.542
323.15 K, m1 = 0.08247	1.564
323.15 K, m1 = 0.08461	1.59
323.15 K, m1 = 0.08672	1.613
323.15 K, m1 = 0.08878	1.634
323.15 K, m1 = 0.09081	1.651
323.15 K, m1 = 0.0928	1.671
323.15 K, m1 = 0.09475	1.694
323.15 K, m1 = 0.09667	1.71
323.15 K, m1 = 0.09855	1.728
323.15 K, m1 = 0.1004	1.745
323.15 K, m1 = 0.1022	1.761
323.15 K, m1 = 0.104	1.776
323.15 K, m1 = 0.1058	1.788
323.15 K, m1 = 0.1075	1.804
323.15 K, m1 = 0.1092	1.816
323.15 K, m1 = 0.1109	1.832
323.15 K, m1 = 0.1125	1.841
323.15 K, m1 = 0.1141	1.854
323.15 K, m1 = 0.1157	1.866
323.15 K, m1 = 0.1173	1.881
323.15 K, m1 = 0.1188	1.893
323.15 K, m1 = 0.1203	1.901
323.15 K, m1 = 0.1218	1.917
